We go through 3 compounds from PMC11396129, “Oxindole–benzothiazole hybrids as CDK2 inhibitors and anticancer agents: design, synthesis and biological evaluation” (BMC Chemistry, 2024).

Molecules are shown by their SMILES.

The subject of one data set is breast cancer. Also on record: method as in PMID 16392802. As to conditions: cited from earlier work.
The target of the next data set is T1, CDK2 (Homo sapiens, UniProt P24941).
T1 construct: purchased BPS Biosciences 79599
The settings on record: read-out: CDK2 inhibitory activity IC50; cited from earlier work.

Regarding `O=C(COc1ccccc1-c1nc2ccccc2s1)NN=C1C(=O)Nc2ccc([N+](=O)[O-])cc21` [Compound 9d, 2-(2-(Benzo[d]thiazol-2-yl)phenoxy)-N′-(5-nitro-2-oxoindolin-3-ylidene)acetohydrazide], the melting point lay in the range of 275 to 277 °C.

`COc1ccc(-c2nc3cc(F)ccc3s2)cc1OC` [GW 610 (VII), 2-(3,4-dimethoxyphenyl)-5-fluorobenzothiazole]: in the data set with breast cancer, the “growth inhibitory activity in vitro” value is given as “sub-nanomolar”.

With `O=C1Nc2ccccc2/C1=C1/Nc2ccccc2/C1=N\O` [indirubin-3′-oxime (IV), indirubin-3′-oxime], the IC50 at CDK2 is 440 nM.
